Measured values as given in patent publication US20090105277A1, “AGENT FOR PREVENTING AND/OR TREATING MOVEMENT DISORDER” (KYOWA HAKKO KOGYO CO., LTD., priority 2005, published 2009).
“And” between values parts separate entries of the source, which are not always exact repeats. Equal entries are not always repeated.

Legend:
[1] = test system: 6-OHDA treated rats (Parkinson's disease model rat); assay: L-DOPA induced contralateral rotational behavior (antiparkinsonian effect) in the Parkinson's disease model rats; format: in vivo; conditions: for number of rotations: oral, total count in 3 hr; for antiparkinsonian activity compared with single administration of L-DOPA 20 mg/kg: L-DOPA 10 mg/kg and test compound combined; for effect on L-DOPA induced rotational behavior, namely antiparkinsonian activity: combined with L-DOPA 10 mg/kg, vs L-DOPA 10 mg/kg + 0.5% MC solution
[2] = test system: involuntary movement (e.g., dyskinesia) model rats; assay: Abnormal involuntary movements (AIMs) in involuntary movement (dyskinesia) model rats given repeated L-DOPA; format: in vivo, rat; conditions: for AIMs score axial, limb, orolingual, day 1-3 / AIMs score locomotive, day 1-3 / AIMs score axial, limb, orolingual, day 8-10 / AIMs score locomotive, day 8-10: oral, multiple doses; for AIMs score axial, limb, orolingual, post value / AIMs score locomotive, post value: after 3-day drug withdrawal, L-DOPA (20 mg/kg) administered; for onset of dyskinesia: combined administration with L-DOPA 10 mg/kg, compared to single administration of L-DOPA 20 mg/kg
Description: It is known that abnormal involuntary movements (AIMS) are developed by repeated administration of L-DOPA to the Parkinson's disease model rat prepared by the method described in Test Example 1, and the treated rat is used as a model of an involuntary movement such as dyskinesia, or the like. AIMs are classified into 4 kinds: (1) axial AIMs: deflection or torsion of head, neck, and trunk towards the contralateral side of lesioned side of the brain, (2) limb AIMs: movements of mainly forelimb on the contralateral side of the lesioned side of the brain (bending or extension in the perpendicular direction or movements in the horizontal•back and forth directions, opening and closure of the digits etc.); (3) orolingual AIMs: jaw movements, facial distortion, tongue protrusion (accompanying behavior of biting hair, skin of forelimb on the contralateral side of the lesioned side); and (4) locomotive AIMs: contralateral rotational behavior. Of these, locomotive AIMs are induced by dopamine agonists such as bromocriptine causing less dyskinesia, and are not suppressed by a drug having an […] activity such as amantadine. From these, locomotive AIMs have been reported to reflect normal movements improved by an antiparkinsonian effect (Neurobiology of Disease, 2002, vol. 10, p. 165-86; European Journal of Neuroscience, 2002, vol. 15, p. 120-132). […] The frequency of the above-mentioned four kinds of AIMs were scored in 0 to 4 points (0 point: no symptom, 1 point: appearance in less than 50% of observation time, 2 points: appearance in 50% or more of observation time, 3 points: symptom is maintained but prevented by strong sensory stimuli, 4 points: symptom is maintained and is not prevented by strong sensory stimuli). As for axial AIMs and limb AIMs, the amplitude thereof was scored in 1 to 4 points (axial AIMs; 1 point: deflection of head and neck is less than 30 degrees, 2 points: deflection of head and neck is not less than 30 degrees and less than 60 degrees, 3 points: deflection and torsion of head, neck and upper trunk is not less than 60 degrees and less than 90 degrees, 4 points: deflection and torsion of head, neck and trunk is 90 degrees or more and balance is lost, limb AIMs; 1 point: tiny oscillatory movements of limb and distal forelimb, 2 points: low amplitude but visible translocation of both distal and proximal limbs, 3 points: translocation of the whole limb with visible contraction of shoulder muscles, 4 points: strong movements of limb and shoulder at maximul amplitude). SD male rats (6-week-old, CHARLES RIVER LABORATORIES JAPAN, INC.) were used for the test. Parkinson's disease model rats were prepared according to the method described in Test Example 1. After a postoperative period of 6 days or longer, L-DOPA (20 mg/kg/day) was repetitively and orally administered once or twice per day to give a model rat of involuntary movement such as dyskinesia, or the like. […] The rats almost free of AIMs after the lapse of 1 week or longer from repetitive administration of L-DOPA were removed. As the group constitution, an L-DOPA 20 mg/kg and 0.5% MC solution administration group (single administration group) and an L-DOPA 10 mg/kg and test compound administration group (combined administration group) were used. The test compound was used in the same dose as in Test Example 1, whereby the conditions under which both the single administration group and the combined administration group show the same level of antiparkinsonian activity were set. After grouping, multiple doses of L-DOPA 20 mg/kg and 0.5% MC solution, and L-DOPA 10 mg/kg and test compound were orally administered, respectively. […] After the completion of administration, a 3-day drug withdrawal period was taken, and then L-DOPA (20 mg/kg) was administered. The AIMs score at this time was taken as the post value. The AIMs score of each group was expressed as mean±standard deviation of total AIMs score observed in individual rats for one day. […]

[3] = L-DOPA (20 mg/kg) + 0.5% MC solution (single administration)
[4] = group L-DOPA (20 mg/kg) + 0.5% MC solution
[5] = L-DOPA (10 mg/kg) + compound 1 (30 mg/kg)
[6] = group L-DOPA (10 mg/kg) + compound 1 (30 mg/kg)
[7] = L-DOPA (10 mg/kg) + compound 2 (1 mg/kg)
[8] = group L-DOPA (10 mg/kg) + compound 2 (1 mg/kg)

N[C@@H](Cc1ccc(O)c(O)c1)C(=O)O [L-DOPA, reference compound]
number of rotations ([1]; L-DOPA (10 mg/kg) + 0.5% MC solution (single administration)): 534.3 ± 123.4 and 367.3 ± 140.6
AIMs score axial, limb, orolingual, day 1-3 [2, 3]: 272.9 ± 25.9 and 271.9 ± 12.6
AIMs score locomotive, day 1-3 [2, 3]: 16.0 ± 2.1 and 12.4 ± 2.6
AIMs score axial, limb, orolingual, day 8-10 [2, 3]: 291.7 ± 16.7 and 232.4 ± 26.2
AIMs score locomotive, day 8-10 [2, 3]: 16.1 ± 2.1 and 13.6 ± 1.7
AIMs score axial, limb, orolingual, post value [2, 4]: 129.3 ± 14.3 and 139.1 ± 12.6
AIMs score locomotive, post value [2, 4]: 16.3 ± 2.8 and 15.0 ± 1.4

CC(C)(O)CCN1CCN(c2cc3nc(-c4ccco4)nn3c(N)n2)CC1 [compound 1]
antiparkinsonian activity compared with single administration of L-DOPA 20 mg/kg [1]: same level
number of rotations ([1]; L-DOPA (10 mg/kg) + compound 1 (30 mg/kg), mean±standard deviation): 1732.2 ± 305.2
effect on L-DOPA induced rotational behavior, namely antiparkinsonian activity [1]: significantly enhanced
AIMs score axial, limb, orolingual, day 1-3 [2, 5]: 78.3 ± 17.2
AIMs score locomotive, day 1-3 [2, 5]: 16.3 ± 3.5
AIMs score axial, limb, orolingual, day 8-10 [2, 5]: 105.0 ± 24.1
AIMs score locomotive, day 8-10 [2, 5]: 16.4 ± 3.9
onset of dyskinesia [2]: significant suppression
AIMs score axial, limb, orolingual, post value [2, 6]: 106.9 ± 14.0
AIMs score locomotive, post value [2, 6]: 17.1 ± 3.1

COCCOc1ccc(N2CCN(CCn3ncc4c3nc(N)n3nc(-c5ccco5)nc43)CC2)cc1 [compound 2]
antiparkinsonian activity compared with single administration of L-DOPA 20 mg/kg [1]: same level
number of rotations ([1]; L-DOPA (10 mg/kg) + compound 2 (1 mg/kg), mean±standard deviation): 1543.5 ± 263.2
effect on L-DOPA induced rotational behavior, namely antiparkinsonian activity [1]: significantly enhanced
AIMs score axial, limb, orolingual, day 1-3 [2, 7]: 146.4 ± 13.3
AIMs score locomotive, day 1-3 [2, 7]: 14.8 ± 1.7
AIMs score axial, limb, orolingual, day 8-10 [2, 7]: 117.5 ± 15.5
AIMs score locomotive, day 8-10 [2, 7]: 14.4 ± 1.7
onset of dyskinesia [2]: significant suppression
AIMs score axial, limb, orolingual, post value [2, 8]: 159.8 ± 24.7
AIMs score locomotive, post value [2, 8]: 13.1 ± 1.7
